Data published in the supplement of paper PMC11821682.

Assays:
[1] = system: Danio rerio embryo; experiment: BMC10 any morphological effect or mortality at 120 hpf; higher = less toxic
[2] = system: HL-60; experiment: Cell Health Index (toxicity pseudo-probability over dose series) (index 0-1); higher = more cytotoxic / cell stress;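 further: HL-60 cells exposed 4 h at 37 °C to ten threefold dilutions spanning 5 nM to 100 µM, multiparametric flow cytometry features scored by machine-learning classification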

| SMILES | BMC10 any morphological effect or mortality [1] [µM] | Cell Health Index [2] |
| --- | --- | --- |
| CC(C)(C)C(=O)OCOP(=O)(COCCn1cnc2c(N)ncnc21)OCOC(=O)C(C)(C)C [Adefovir dipivoxil] | > 100 | 0.258 |
| Cc1nc(N(C)C(=O)Cc2ccc(-c3ccccn3)cc2)sc1S(N)(=O)=O [Pritelivir] | > 100 | 0.209 |
| COc1c(O)cc2c(c1O)[C@@H]1O[C@H](CO)[C@@H](O)[C@H](O)[C@H]1OC2=O [Bergenin] | > 100 | 0.214 |
| Cc1cn([C@H]2C=C[C@@H](CO)O2)c(=O)[nH]c1=O [Stavudine] | > 100 | 0.204 |
| O=C(/C=C/c1ccc(O)c(O)c1)O[C@@H]1C[C@@](O)(C(=O)O)C[C@@H](O)[C@@H]1O [5-Caffeoylquinic acid] | > 100 | 0.295 |
| COc1c(-c2ccc3cc(NS(C)(=O)=O)ccc3c2)cc(-n2ccc(=O)[nH]c2=O)cc1C(C)(C)C [Dasabuvir] | > 100 | 0.608 |
| CC(=O)O[C@H]1CC(=O)OC(C)(C)[C@@H]2CC(=O)[C@]3(C)[C@H](CC[C@@]4(C)[C@H](c5ccoc5)OC(=O)[C@H]5O[C@]543)[C@@]12C [Nomilin] | > 100 | 0.278 |
| Cc1ccnc2c1NC(=O)c1cccnc1N2C1CC1 [Nevirapine] | > 100 | 0.185 |
| O=c1cc(-c2ccc(O)c(O)c2)oc2cc(O[C@@H]3O[C@H](CO)[C@@H](O)[C@H](O)[C@H]3O)cc(O)c12 [Luteoloside] | > 100 | 0.345 |
| CC1(C)O[C@H]2CC(=O)OC[C@]23[C@H]2CC[C@@]4(C)[C@H](c5ccoc5)OC(=O)[C@H]5O[C@]54[C@]2(C)C(=O)C[C@@H]13 [Limonin] | > 100 | 0.145 |
| CNc1ncnc2c1ncn2[C@@H]1O[C@H](CO)[C@@H](O)[C@H]1O [N6-Methyladenosine] | > 100 | 0.307 |
| CC(C)OC(=O)[C@H](C)NP(=O)(OC[C@H]1O[C@@H](n2ccc(=O)[nH]c2=O)[C@](C)(F)[C@@H]1O)Oc1ccccc1 (some centres undefined) [Sofosbuvir] | > 100 | 0.166 |
| CC1(C)[C@@H]2CC[C@@]1(C)C(=O)C2 [(1R)-(+)-Camphor] | > 100 | 0.135 |
| COc1cc2cc(Oc3ccc4ccc(=O)oc4c3)c(=O)oc2cc1O [Daphnoretin] | > 100 | 0.178 |
| C=C1[C@H](CO)[C@@H](O)C[C@@H]1n1cnc2c(=O)nc(N)[nH]c21.O [Entecavir] | > 100 | 0.178 |
| C=C(C)[C@@H]1CC[C@]2(C=O)CC[C@]3(C)[C@H](CC[C@@H]4[C@@]5(C)CC[C@H](O)C(C)(C)[C@@H]5CC[C@]43C)[C@@H]12 [Betulinic aldehyde] | > 100 | 0.515 |
| Nc1ccn(C[C@@H](CO)OCP(=O)(O)O)c(=O)n1 [Cidofovir] | > 100 | 0.144 |
| COc1cc(NC(=O)Nc2cccc(CNC(=O)O[C@H]3CCOC3)c2)ccc1-c1cnco1 [Merimepodib] | > 100 | 0.67 |
| O=c1c(O[C@@H]2O[C@H](CO)[C@@H](O)[C@H](O)[C@H]2O)c(-c2ccc(O)c(O)c2)oc2cc(O)cc(O)c12 [Isoquercetin] | > 100 | 0.31 |
| CC(C)OC(=O)OCOP(=O)(CO[C@H](C)Cn1cnc2c(N)ncnc21)OCOC(=O)OC(C)C.O=C(O)/C=C/C(=O)O [Tenofovir Disoproxil] | > 100 | 0.212 |
| O=P([O-])(O)C(O)(Cc1cccnc1)P(=O)(O)O.[Na+] [Risedronic acid] | > 100 | 0.203 |

| SMILES | BMC10 any morphological effect or mortality [1] [µM] | Cell Health Index [2] |
| --- | --- | --- |
| CCOC(=O)C1=C[C@@H](OC(CC)CC)[C@H](NC(C)=O)[C@@H](N)C1.O=P(O)(O)O [Oseltamivir] | > 100 | 0.252 |
| CCCCc1nc(Cl)c(CO)n1Cc1ccc(-c2ccccc2-c2nnn[n-]2)cc1.[K+] [Losartan] | > 100 | 0.209 |
| CCC[C@H](NC(=O)[C@@H]1[C@H]2CCC[C@H]2CN1C(=O)[C@@H](NC(=O)[C@@H](NC(=O)c1cnccn1)C1CCCCC1)C(C)(C)C)C(=O)C(=O)NC1CC1 [Telaprevir] | > 100 | 0.402 |
| Nc1nc(NC2CC2)c2ncn([C@H]3C=C[C@@H](CO)C3)c2n1.O=S(=O)(O)O [Abacavir] | > 100 | 0.116 |
| CCc1cccc(CC)c1NC(=O)N1Cc2[nH]nc(NC(=O)c3ccc(N4CCN(C)CC4)cc3)c2C1 | > 100 | 0.634 |
| C1=C2CCCN[C@H]2[C@@H]2C[C@H]1[C@H]1CCCCN1C2 [Aloperine] | > 100 | 0.209 |
| Cl.N=C(N)NC(=N)N1CCOCC1 [Moroxydine] | > 100 | 0.19 |
| CCN(CC)Cc1ccc(C(=O)N(CCc2ccccc2OC)[C@@H]2CCNC2)cc1.Cl.Cl | > 100 | 0.318 |
| C[C@@H]1CCN(C(=O)CC#N)C[C@@H]1N(C)c1ncnc2[nH]ccc12.O=C(O)CC(O)(CC(=O)O)C(=O)O [Tofacitinib] | > 100 | 0.228 |
| CCOC(=O)CN[C@@H](C(=O)N1CC[C@H]1C(=O)NCc1ccc(C(=N)NO)cc1)C1CCCCC1 [Ximelagatran] | > 100 | 0.193 |
| Cc1cnc(C(=O)N[C@H]2CCCCC/C=C\[C@@H]3C[C@@]3(C(=O)NS(=O)(=O)C3CC3)NC(=O)[C@@H]3C[C@@H](Oc4nc5ccccc5c5ccccc45)CN3C2=O)cn1 [Paritaprevir] | > 100 | 0.626 |
| OCC1=C[C@@H](O)[C@@H]2C=CO[C@@H](O[C@@H]3O[C@H](CO)[C@@H](O)[C@H](O)[C@H]3O)[C@H]12 [Aucubin] | > 100 | 0.304 |
| CC(=O)N[C@@H](CC(C)C)C(=O)N[C@@H](CC(C)C)C(=O)N[C@H](C=O)CCCNC(=N)N.CC(=O)N[C@@H](CC(C)C)C(=O)N[C@@H](CC(C)C)C(=O)N[C@H](C=O)CCCNC(=N)N.O=S(=O)(O)O [Leupeptin] | > 100 | 0.184 |
| CC(=O)Oc1ccccc1C(=O)O [Aspirin] | > 100 | 0.198 |
| O[C@H]1[C@@]2([H])[C@](CC[C@]2([H])[C@@](CC/C=C(C)/C)(C)O[C@@H]3O[C@H](CO[C@H]4[C@H](O)[C@@H](O)[C@@H](O)CO4)[C@@H](O)[C@H](O)[C@H]3O)(C)[C@]5(C)CC[C@]6([H])[C@@](CC[C@H](O[C@]7([H])O[C@H](CO)[C@@H](O)[C@H](O)[C@H]7O[C@@]8([H])[C@H](O)[C@@H](O)[C@H](O)[C@@H](CO)O8)C6(C)C)(C)[C@@]5([H])C1 [Ginsenoside Rb2] | > 100 | 0.173 |
| Nc1ccn([C@H]2CC[C@@H](CO)O2)c(=O)n1 [Zalcitabine] | > 100 | 0.193 |
| CC(=O)N(O)CCCCCNC(=O)CCC(=O)N(O)CCCCCNC(=O)CCC(=O)N(O)CCCCCN.CS(=O)(=O)O [Deferoxamine] | > 100 | 0.23 |
| Nc1ccc(C(=O)Nc2cccc(-c3nc(N4CCOCC4)c4oc5ncccc5c4n3)c2)cn1 | > 100 | 0.615 |
| Cc1cccc(C)c1OCC(=O)N[C@@H](Cc1ccccc1)[C@@H](O)C[C@H](Cc1ccccc1)NC(=O)[C@H](C(C)C)N1CCCNC1=O [Lopinavir] | > 100 | 0.752 |
| CC(=O)NC1[C@H]([C@H](O)[C@H](O)CO)O[C@@](O[C@H]2[C@@H](O)[C@@H](CO)O[C@@H](O[C@@H]([C@H](O)[C@@H](O)C=O)[C@H](O)CO)[C@@H]2O)(C(=O)[O-])C[C@@H]1O.[Na+] (some centres undefined) [N-Acetylneuraminoyllactose] | > 100 | 0.235 |
| O=c1c(-c2ccc(O)c(O)c2)coc2cc(O)ccc12 [3',4',7-Trihydroxyisoflavone] | > 100 | 0.478 |
